From patent EP4786468A1, “CRYSTALLINE FORM OF HDAC6 INHIBITOR AND PREPARATION METHOD THEREFOR” (Suzhou Genhouse Bio Co., Ltd., priority 2023, dated 2025)
Values after ≈ are worked out from the molar mass of the structure shown.

Assays:
[1] = Dynamic solubility in biorelevant media (HPLC); format: physicochemical; details: 37°C
Description: FaSSGF (Fasted State Simulated Gastric Fluid), FeSSGF (Fed State Simulated Gastric Fluid), FaSSIF (Fasted State Simulated Intestinal Fluid), and FeSSIF (Fed State Simulated Intestinal Fluid) are biorelevant media. These media better reflect the impact of the gastrointestinal physiological environment on drug release. Solubility tested in these media is closer to solubility in the human body environment.
(§1) The vial was stirred and observed in a 37°C water bath. If the sample dissolved completely, more sample was added until undissolved material remained after rotary mixing. The sample vial was sealed and stirred in a 37°C water bath for 24h, then centrifuged. The supernatant was filtered and the solubility was measured by HPLC. Table 13: Dynamic Solubility of Crystal Forms in Biorelevant Media

[2] = Solubility in water (HPLC); format: physicochemical; details: H2O, 37°C
Description: as §1, with “HPLC.” for “HPLC. Table 13: Dynamic Solubility of Crystal Forms in Biorelevant Media”

[3] = Stability of the crystal form under accelerated conditions (XRPD, HPLC); format: physicochemical; details: for % Area: chemical stability
Description: Solid samples separated under different conditions were evaluated for physical stability via XRPD testing for crystalline form and for chemical stability via HPLC testing for purity.
Appropriate amounts of crystal form I samples were taken and subjected to a stability experiment under accelerated conditions of 40 °C/75%RH/open/1 month. Physical stability was evaluated by XRPD testing. Table 14: Stability of crystal form I

[4] = Phase I metabolic stability in liver microsomes; format: in vitro ADME, beagle dogs; details: DLM
Description: (§2) Evaluation of the Phase I metabolic stability of the test compound in liver microsomes from CD-1 mice (MLM), Sprague-Dawley rats (RLM), beagle dogs (DLM), cynomolgus monkeys (CLM), and humans (HLM).
(§3) The animal and human liver microsomes used in this test system were purchased from Xenotech, Corning, or other qualified suppliers and stored in a freezer below -60°C before use.
(§4) The test and control compounds were incubated with animal and human liver microsomes at 37±1°C for a certain period, with a maximum incubation time of 60 minutes. Samples were taken at specified time points, and the reaction was terminated with acetonitrile or other organic solvents containing an internal standard. After centrifugation, the resulting supernatant was analyzed using liquid chromatography-tandem mass spectrometry (LC-MS/MS).
(§5) 73.21 g of dipotassium hydrogen phosphate trihydrate and 10.78 g of potassium dihydrogen phosphate were dissolved in 4000 mL of ultrapure water. The pH of the solution was adjusted to 7.40±0.10 using 10% phosphoric acid or 1 M potassium hydroxide, with a final concentration of 100 mM. […]
(§6) Sample analysis was performed using liquid chromatography-tandem mass spectrometry (LC-MS/MS), without calibration curves and quality control samples. Semi-quantitative determination was performed using the ratio of the analyte peak area to the internal standard peak area. […]

[5] = Phase I metabolic stability in liver microsomes; format: in vitro ADME, Sprague-Dawley rats; details: RLM
Description: as §2, §3, §4, §5, §6

[6] = Mouse brain-to-plasma drug concentration ratio; format: in vivo, mice
Description: The actual body weight of the mice was measured on the day of dosing and the dose volume was calculated. Each group consisted of 9 mice. The compound was administered as a single intravenous (IV) injection or a single oral gavage (PO). Whole blood samples were collected via orbital bleeding at specified time points. After blood collection, samples were immediately transferred to labeled commercial tubes containing K2-EDTA (0.85-1.15 mg), then centrifuged (3200 x g, 4°C, 10 minutes) to obtain plasma. The plasma was transferred to pre-cooled centrifuge tubes, flash-frozen on dry ice, and stored in an ultra-low temperature freezer at -60°C or lower until LC-MS/MS analysis. 20 µL of plasma sample or brain tissue homogenate was added to 80 µL of internal standard solution (50 ng/mL propafenone in acetonitrile). The plate was sealed at 165 °C using a plate sealer, vortexed for 10 min on a microplate shaker (maximum speed), and centrifuged at 4000 rpm for 20 min using a low-speed benchtop centrifuge. 10 µL of the supernatant was transferred and mixed with 90 µL of acetonitrile. After vortex mixing, the plate was sealed at 165 °C, vortexed again, and 1 µL of the supernatant was taken for LC-MS/MS analysis. The plasma concentration data of the compound were processed using a non-compartmental model with WinNonlin Version 6.3 (Pharsight, Mountain View, CA) pharmacokinetic software. Relevant pharmacokinetic parameters were calculated using the linear log trapezoidal method.

[7] = Phase I metabolic stability in liver microsomes; format: in vitro ADME, CD-1 mice; details: MLM
Description: as §2, §3, §4, §5, §6

HDAC6 = biological target: T1, HDAC6 (Homo sapiens, UniProt Q9UBN7); test: HDAC6 enzyme activity assay (fluorogenic substrate Ac-GAK(Ac)-AMC); format: biochemical; details: HDAC6 (Abcam), 20 µM substrate, 37°C 30 min
T1 construct: purchased Abcam
T1 sequence (Q9UBN7 1-1215): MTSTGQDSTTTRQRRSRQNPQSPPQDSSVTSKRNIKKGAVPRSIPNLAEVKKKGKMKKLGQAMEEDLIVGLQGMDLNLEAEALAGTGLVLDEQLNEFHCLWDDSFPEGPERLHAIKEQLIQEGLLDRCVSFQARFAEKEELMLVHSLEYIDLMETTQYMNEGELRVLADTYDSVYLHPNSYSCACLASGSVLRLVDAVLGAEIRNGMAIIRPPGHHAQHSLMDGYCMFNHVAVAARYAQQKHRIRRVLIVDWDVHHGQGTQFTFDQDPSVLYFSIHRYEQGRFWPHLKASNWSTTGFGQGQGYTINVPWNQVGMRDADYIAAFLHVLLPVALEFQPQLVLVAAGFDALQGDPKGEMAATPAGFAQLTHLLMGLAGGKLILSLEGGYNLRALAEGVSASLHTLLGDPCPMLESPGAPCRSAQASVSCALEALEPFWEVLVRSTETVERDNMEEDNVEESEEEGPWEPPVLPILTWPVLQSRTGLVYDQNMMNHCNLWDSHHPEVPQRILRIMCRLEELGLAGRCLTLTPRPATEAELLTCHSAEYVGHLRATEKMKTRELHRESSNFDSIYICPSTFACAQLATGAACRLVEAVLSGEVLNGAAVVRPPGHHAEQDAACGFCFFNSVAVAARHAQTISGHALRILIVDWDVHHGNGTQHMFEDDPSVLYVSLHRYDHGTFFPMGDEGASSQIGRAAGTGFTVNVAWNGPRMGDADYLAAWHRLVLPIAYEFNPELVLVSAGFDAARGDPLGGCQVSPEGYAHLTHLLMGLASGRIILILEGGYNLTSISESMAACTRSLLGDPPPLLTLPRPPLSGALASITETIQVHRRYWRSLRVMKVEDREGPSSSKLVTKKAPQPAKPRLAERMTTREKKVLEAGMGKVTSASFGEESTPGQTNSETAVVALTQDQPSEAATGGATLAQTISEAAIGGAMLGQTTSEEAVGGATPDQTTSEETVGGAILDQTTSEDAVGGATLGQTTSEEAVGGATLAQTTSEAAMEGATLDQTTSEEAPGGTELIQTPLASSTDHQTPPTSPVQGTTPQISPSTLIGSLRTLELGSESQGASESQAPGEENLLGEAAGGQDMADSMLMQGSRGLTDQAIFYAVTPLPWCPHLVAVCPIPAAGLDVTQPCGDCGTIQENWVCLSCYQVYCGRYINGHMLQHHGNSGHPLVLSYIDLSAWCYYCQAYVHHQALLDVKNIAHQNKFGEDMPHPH
Description: (§7) The IC50 was obtained by fitting with GraphPad Prism 7.0 software.

[8] = Mouse pharmacokinetic test (IV and PO); format: in vivo; details: BALB/c mice
Description: This experimental example tested the pharmacokinetic behavior of the compound in BALB/c mice after intravenous (IV) and oral (PO) administration.
The actual body weight of the mice was measured on the day of dosing and the dose volume was calculated. Each group consisted of 3 mice. The compound was tested in two groups: one group received a single intravenous injection, and the other group received a single oral gavage. Whole blood samples were collected via orbital bleeding at specified time points (0.25, 0.5, 1, 2, 4, 8, 24h post-dose). After blood collection, samples were immediately transferred to labeled commercial tubes containing K2-EDTA (0.85-1.15 mg), then centrifuged (3200 x g, 4°C, 10 minutes) to obtain plasma. The plasma was transferred to pre-cooled centrifuge tubes, flash-frozen on dry ice, and stored in an ultra-low temperature freezer at -60°C or lower until LC-MS/MS analysis.
Plasma concentrations were determined using an LC-MS/MS method. […] Relevant pharmacokinetic parameters were calculated using the linear log trapezoidal method. Table 9: Mouse Pharmacokinetic Test Experimental Data

[9] = Phase I metabolic stability in liver microsomes; format: in vitro ADME, cynomolgus monkeys; details: CLM
Description: as §2, §3, §4, §5, §6

[10] = Phase I metabolic stability in liver microsomes; format: in vitro ADME, humans; details: HLM
Description: as §2, §3, §4, §5, §6

HDAC1 = biological target: T2, HDAC1 (Homo sapiens, UniProt Q13547); test: HDAC subtype enzyme activity assay; format: biochemical; details: read-out: HDAC1 Inhibition Rate/%
T2 construct: purchased BPS
Description: as §7

[11] = 60 min, buffer instead of NADPH regeneration system
[12] = 60 min with NADPH regeneration system

T2 sequence (Q13547 whole entry, species assumed): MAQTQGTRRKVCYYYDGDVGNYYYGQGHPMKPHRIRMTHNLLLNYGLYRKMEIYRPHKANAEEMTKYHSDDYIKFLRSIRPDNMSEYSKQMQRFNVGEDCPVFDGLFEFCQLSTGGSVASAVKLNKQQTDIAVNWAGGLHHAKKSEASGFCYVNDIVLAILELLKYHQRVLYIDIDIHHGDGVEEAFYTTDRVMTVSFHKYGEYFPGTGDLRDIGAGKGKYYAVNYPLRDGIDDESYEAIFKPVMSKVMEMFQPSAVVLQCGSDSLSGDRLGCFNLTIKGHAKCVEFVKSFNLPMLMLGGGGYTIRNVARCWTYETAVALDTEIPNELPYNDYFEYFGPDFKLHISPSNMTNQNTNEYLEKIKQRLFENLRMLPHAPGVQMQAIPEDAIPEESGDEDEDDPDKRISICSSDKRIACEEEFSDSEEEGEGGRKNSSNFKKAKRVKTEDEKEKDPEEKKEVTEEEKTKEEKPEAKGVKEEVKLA

O=C(N[C@@H]1CCCC[C@H]1N1Cc2ccc(-c3nnc(C(F)F)o3)cc2S1(=O)=O)C(F)F [Crystal Form I]
solubility at 1 h ([1]; FaSSGF): 34.5 µg/mL (≈ 74.6 µM) | solubility at 24 h ([1]; FaSSGF): 51.9 µg/mL (≈ 112 µM) | solubility at 24 h ([1]; FaSSIF): 96.2 µg/mL (≈ 208 µM) | solubility at 1 h ([1]; FeSSGF): 45.5 µg/mL (≈ 98.4 µM) | solubility at 24 h ([1]; FeSSGF): 55 µg/mL (≈ 119 µM) | solubility at 24 h ([1]; FeSSIF): 87.5 µg/mL (≈ 189 µM) | solubility at 24 h [2]: 49.8 µg/mL (≈ 108 µM) | XRPD characteristic peaks (physical stability) ([3]; 40 °C/75%RH/open/1 month): remained unchanged | % Area ([3]; 40 °C/75%RH/open/1 month, HPLC peak of Compound of formula (I)): 99.51 % Area | % Area ([3]; T0, HPLC peak of Compound of formula (I)): 99.51 % Area

O=C(N[C@@H]1CCCC[C@H]1N1Cc2ccc(-c3nnc(C(F)F)o3)cc2S1(=O)=O)C(F)F [I]
Remaining Rate (NCF=60 min) [4, 11]: 90.9% | Remaining Rate (T=60 min) [4, 12]: 85.8% | Remaining Rate (NCF=60 min) [5, 11]: 93.0% | Remaining Rate (T=60 min) [5, 12]: 76.4% | Brain Drug Concentration ([6]; 2 mg/kg IV, 1 h): 268 ng/mL | Plasma Drug Concentration ([6]; 2 mg/kg IV, 1 h): 1090 ng/mL | Brain Drug Concentration ([6]; 2 mg/kg IV, 4 h): 149 ng/mL | Plasma Drug Concentration ([6]; 2 mg/kg IV, 4 h): 595 ng/mL | Brain Drug Concentration ([6]; 10mg/kg PO, 1 h): 882 ng/mL | Plasma Drug Concentration ([6]; 10mg/kg PO, 1 h): 4993 ng/mL | Brain Drug Concentration ([6]; 10mg/kg PO, 4 h): 435 ng/mL | Plasma Drug Concentration ([6]; 10mg/kg PO, 4 h): 2833 ng/mL | Remaining Rate (NCF=60 min) [7, 11]: 99.8% | Remaining Rate (T=60 min) [7, 12]: 84.8% | IC50 (HDAC6): 5.7 nM | CLz ([8]; IV@2mg/kg): 6 mL/min/kg | t1/2z ([8]; IV@2mg/kg): 60.6 min | F ([8]; PO@10mg/kg): 123.92% | t1/2z ([8]; PO@10mg/kg): 97.2 min | F ([8]; PO@30mg/kg): 96.93% | t1/2z ([8]; PO@30mg/kg): 52.2 min | F ([8]; PO@100mg/kg): 95.71% | t1/2z ([8]; PO@100mg/kg): 48.6 min | Remaining Rate (NCF=60 min) [9, 11]: 101.5% | Remaining Rate (T=60 min) [9, 12]: 88.8% | Remaining Rate (NCF=60 min) [10, 11]: 97.3% | Remaining Rate (T=60 min) [10, 12]: 86.1% | inhibition at 1 µM (HDAC1): -11.9% | inhibition at 10 µM (HDAC1): -3.91%
